{"source": "paper PMC6196658", "about": "“Activity of Thioallyl Compounds From Garlic Against Giardia duodenalis Trophozoites and in Experimental Giardiasis” (Frontiers in Cellular and Infection Microbiology, 2018)", "key": {"Babesia microti": {"system": "Babesia microti", "parameters": "method as in Salama et al., 2014", "conditions": "mice, 30 mg/kg orally for 5 days; ref Salama et al., 2014; cited from earlier work"}, "[1]": {"assay": "Tolerability and lethality in gerbils", "quoted_text": "Eighty male Mongolian gerbils (M. unguiculatus) 6–10 weeks old, weighted 45–60 g and sentinel-checked gerbils free of intestinal parasites were kept in individual cages and distributed in 12 groups of 6 animals per treatment and experimental infections were performed as described elsewhere (Argüello-García and Ortega-Pierres, [1997]). In brief, animals were inoculated intragastrically with 1 × 10^6 G. duodenalis trophozoites in 500 μl sterile PBS per os using gavage under ether anesthesia. Control animals received 500 μl sterile PBS each. […] As additional control, one group of animals received MTZ (38.4 mg/kg at single or double dose). […] Treatment efficacy was evaluated by determining the presence or absence of trophozoites in intestinal contents of control and treated gerbils at day 13 post-infection. […] Supernatant was collected and centrifuged at 750 × g for 10 min at 4°C, cell pellet was resuspended in 1 mL PBS and trophozoites were counted using a haemocytometer. Gerbils were scored as cured if no trophozoites were recovered from infected animals."}, "[2]": {"system": "G. duodenalis trophozoites", "assay": "In vitro susceptibility, MTT reduction", "assay_type": "cell-based, Giardia duodenalis (WB strain)"}, "[3]": {"system": "thiol groups exposed in G. duodenalis trophozoite proteins", "assay": "Thiol-modifying activity (inhibition of thiol-DTNB complexes)", "assay_type": "biochemical, Giardia duodenalis", "conditions": "100 μg soluble trophozoite protein, 10 min 37°C, DTNB 412 nm", "description": "The technique reported by Lawson and Wang ([1993]) was followed. In these assays trophozoites were collected from 60 mL flasks, washed 3 times with PBS and resuspended in 500 μL PBS containing a 1:12.5 dilution of a commercial mixture of protease inhibitors (Complete^TM, Roche Diagnostics GmbH, Indianapolis, IN, USA) and lysed by sonication at 12 microns/60% amplitude (Ultrasonic apparatus Sonic UVX1130PB). Soluble proteins were recovered by centrifugation at 15,400 × g for 30 min at 4°C and protein concentration was determined by the Bradford technique. These samples were adjusted to a concentration of 1 mg/mL. Reactions were carried out in 1.5 mL microcentrifuge tubes with a mixture of 100 μg protein (100 μL) and NaH2PO4 45 mM pH 7.0 mM (800 μL) to which increasing volumes of TACs stocks or a positive control with the thiol derivatizing agent MMTS prepared at 50 mM in the same buffer, were added and total volume was adjusted to 1 mL. After incubation for 10 min at 37°C, 100 μL of 1.5 mM dithionitrobenzoic acid (DTNB, Ellman's reagent) were added to each tube and following incubation for 10 min at room temperature the absorbances (yellow solutions) were recorded at 412 nm (Smart Spec 3000^TM, Bio-Rad, Hercules, CA, USA). A calibration curve was obtained using increasing volumes (0–100 μL) of 15.5 mM cysteine instead protein extracts and the maximal blocking concentration (MBC) corresponding to a complete absence of thiol-DTNB complexes produced by TACs were calculated using the least-square method (Microsoft Excel^TM)."}, "[4]": {"system": "G. duodenalis trophozoites", "assay": "Annexin V-PI flow cytometry (apoptosis/necrosis)", "assay_type": "cell-based, Giardia duodenalis", "conditions": "0.6 mM (MLC), 24 h", "description": "(§1) The identification and quantitative determinations of trophozoites were carried out as follows: (a) apoptosis or necrosis were determined using anti-annexin V-fluorescein isothiocyanate (FITC) antibodies or PI as respective markers, (b) oxidative stress was determined by formation of reactive oxygen species (ROS) with the fluorescent ROS-complexing agent 5-(and 6)-carboxy 2′7′-dichlorodihydrofluorescein diacetate (H2DCFDA), and (c) determination of trophozoites cell cycle stages (G1, S, G2, and G2/M) after exposure to ALC or to a control drug (albendazole, ABZ) was carried out as previously described (Martínez-Espinosa et al., [2015]). In all these assays 20,000 cells per sample were recorded."}, "[5]": {"system": "G. duodenalis trophozoites", "assay": "Electron microscopy of exposed trophozoites", "assay_type": "cell-based, Giardia duodenalis", "description": "Trophozoites were exposed to TACs in two ways: under long (24 h, standard toxicity) and short (3 h, acute toxicity) incubations at 37°C using concentrations corresponding to the experimental MLC (as determined at 24 h) and twofold the MLC, respectively. For scanning electron microscopy, PBS-washed parasites were fixed with 2.5% glutaraldehyde in 0.1 M sodium cacodylate buffer, pH 7.2, dehydrated under increasing concentrations of ethanol, critical-point dried using a Samdri apparatus, gold coated in an ion sputtering device (JEOL-JFC-1100), and examined with a JEOL 35-C scanning electron microscope. In transmission electron microscopy (TEM) studies, washed cells were fixed with 2.5% glutaraldehyde and post-fixed with 1% osmium tetroxide in cacodylate buffer. Following sequential dehydration in ethanol, samples were embedded with epoxy resins."}, "[6]": {"system": "G. duodenalis trophozoites", "assay": "In vitro susceptibility, FDA-PI staining", "assay_type": "cell-based, Giardia duodenalis (WB strain)", "conditions": "24 h exposure"}, "Plasmodium berghei": {"system": "Plasmodium berghei", "parameters": "method as in Coppi et al., 2006", "conditions": "mice, ref Coppi et al., 2006, cited from earlier work"}, "[7]": {"system": "G. duodenalis trophozoites", "assay": "ROS formation, H2DCFDA flow cytometry", "assay_type": "cell-based, Giardia duodenalis", "conditions": "1.2 mM (twice MLC), 24 h", "description": "as §1"}, "giardipain-1": {"molecular_target": "T1, giardipain-1 (Giardia intestinalis, UniProt P92132)", "T1 construct": "the 25 kDa band that contains the processed form of the cathepsin B-like protease named as giardipain-1; endogenous in cells", "T1 sequence (P92132 75-300)": "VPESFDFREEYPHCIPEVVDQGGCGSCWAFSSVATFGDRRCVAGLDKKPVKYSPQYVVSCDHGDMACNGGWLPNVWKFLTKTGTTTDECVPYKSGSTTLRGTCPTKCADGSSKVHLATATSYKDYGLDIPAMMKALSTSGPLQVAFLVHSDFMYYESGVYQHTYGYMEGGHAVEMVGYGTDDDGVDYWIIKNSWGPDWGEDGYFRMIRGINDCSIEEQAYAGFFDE", "assay": "Inhibition of cytolytic effect of giardipain-1 on IEC6 cell monolayers", "assay_type": "cell-based, Giardia duodenalis", "conditions": "5.3 mM pre-incubated 30 min with giardipain-1 16 μg/mL; 100 min", "description": "Additional assays were carried out using the MLCs of TACs (without giardipain-1) previously obtained in trophozoite cultures to monitor their toxicity. These solutions were added to monolayers of the intestinal cell line IEC6 grown in 1 cm^2-microwells and incubated for 100 min at 37°C. After incubation, supernatants were discarded and monolayers were fixed with 2% paraformaldehyde in PBS. The effects of TACs and E64 on the cytolytic effect of giardipain-1 were evaluated by light microscopy using Nomarski optics (Axioskop 40, Zeiss)."}, "[8]": {"assay": "Storage stability of allicin", "conditions": "1.5% (w/v) in water, 1 mL aliquots at −70°C", "quoted_text": "For stabilization and storage of ALC, the oily product was resuspended in water at 1.5% (w/v) and kept in 1 mL aliquots at −70°C until analyzed and used."}, "[9]": {"conditions": "rat, no reference given; cited from earlier work"}}, "note": "Where “and” joins values, the source holds several entries; their conditions need not be identical. Identical values can stand only once. Like-named read-outs stand apart in the source and are kept apart here."}
{"smiles": "C=CCS[S+]([O-])CC=C", "note": "(centres unmarked) [ALC, diallyl thiosulfinate]", "values": [{"measurement": "parasitemia", "setting": "Babesia microti", "value": "significantly reduced parasitemia"}, {"measurement": "irritation in intestinal epithelium", "setting": "[1]; 276 mg/kg single dose, treated non-infected animals, surgical examination", "value": "noticeable irritation in intestinal epithelium"}, {"measurement": "lethal dose", "setting": "[1]; intragastric route, gerbils", "value": "> 400", "unit": "mg/kg"}, {"measurement": "IC50", "setting": "[2]; Giardia duodenalis, MTT assay, value as quoted in Discussion", "value": 686, "unit": "µM"}, {"measurement": "MLC (mM) ±SD", "setting": "[2]; MTT, 24 h exposure", "value": "1.490 ± 0.025", "unit": "mM"}, {"measurement": "MBC (maximal blocking concentration) ± SD", "setting": "[3]", "value": "93.8 mmol/mg protein and 93.84 ± 12.8 mmol/mg protein"}, {"measurement": "R4 cells positive for early apoptosis (annexin V+)", "setting": "[4]", "value": 10.2, "unit": "%"}, {"measurement": "surface damage by scanning electron microscopy", "setting": "[5]; 600 μM, 24 h (standard toxicity)", "value": "membrane blebbing process with profuse holes"}, {"measurement": "intracellular damage by transmission electron microscopy", "setting": "[5]; standard (600 μM 24 h) or acute (1.2 mM 3 h) protocol", "value": "complete loss of electron density of the intracellular elements and the integrity of plasma membrane"}, {"measurement": "MLC (mM) ±SD", "setting": "[6]", "value": "1.285 ± 0.18", "unit": "mM"}, {"measurement": "IC50", "setting": "[6]; Giardia duodenalis", "value": "536 ± 103", "unit": "µM"}, {"measurement": "mortality", "setting": "Plasmodium berghei; 4 daily doses of 8 mg/kg intravenously", "value": "markedly reduced mortality"}, {"measurement": "mortality", "setting": "Plasmodium berghei; 4 daily doses of 9 mg/kg orally", "value": "markedly reduced mortality"}, {"measurement": "cells positive for ROS (total)", "setting": "[7]", "value": 0.75, "unit": "%"}, {"measurement": "effect on giardipain-1 cytopathic damage in IEC6 monolayers", "setting": "giardipain-1", "value": "noticeably blocked these effects"}, {"measurement": "time of retained full activity on storage", "setting": "[8]", "value": "up to 6 months"}, {"measurement": "oral lethality", "setting": "[9]", "value": 980, "unit": "mg/kg"}]}
